Results taken from publication PMC6007963, “An ^18F-Labeled Poly(ADP-ribose) Polymerase Positron Emission Tomography Imaging Agent” (Journal of Medicinal Chemistry, 2018).
Like-named read-outs stand apart in the source and are kept apart here.

Legend:
[1] = design: method as in PMID 26493053; details: at 120 min; cited from earlier work
[2] = tested on: U87MG-Luc2 human glioblastoma tumor xenografts; assay: ex vivo biodistribution in subcutaneous U87MG-Luc2 glioblastoma bearing nude mice; design: species or system mouse
Protocol: Following successful optimization of the radiochemistry, the behavior of [^18F]20 was investigated in vivo in mice bearing subcutaneous U87MG-Luc2 human glioblastoma tumor xenografts using ex vivo biodistribution and PET–MR imaging techniques. Ex vivo biodistribution of [^18F]20 was established at 30, 60, and 120 min after intravenous radiotracer administration, and PET data were acquired by performing a 45 min dynamic scan. […] This is in contrast to observations made by Carney et al., who reported <2%ID/g of bone of [^18F]8 at 120 min.[34] The high bone uptake seen with [^18F]20 could be explained by in vivo defluorination and subsequent radiofluoride accumulation in bone tissue.[35] Despite this, apparent radiotracer tumor uptake was identified in both biodistribution and PET–MR imaging experiments (Figures 3a,c), whereas in the case of the former, the mean ratio of %ID/g of glioblastoma tumor to muscle increased from 1.9 ± 0.5 (n = 4) to 3.6 ± 0.5 (n = 4) between the 30 and 120 min time points.
(§1) U87MG-Luc2 glioblastoma cell culture and implantation procedures were performed as reported previously.[19] Briefly, U87MG-Luc2 cells were purchased commercially from ATCC and cultured in minimum essential media that has been supplemented with 10% w/v fetal calf serum and 2 mM L-glutamine at 37 °C and 5% v/v CO2. Unconscious female CD1 nude mice (6–11 week old; purchased from Charles River Laboratories) had 5 × 10^6 U87MG-Luc2 cells injected subcutaneously into the right flank. The resulting tumor xenografts were measured and monitored visually every 3 days, and tumor-bearing animals were used for in vivo studies 28–30 days post-implantation.
(§2) Subcutaneous tumor bearing mice were administered 1.8–2.6 MBq of [^18F]20 in 0.11–0.21 mL of 5% v/v DMSO in 0.9% saline via bolus tail-vein injections. The remainder of the experiment was conducted as described previously.[19]

[3] = molecular target: T1, PARP in U87MG-Luc2 human glioblastoma xenografts (Homo sapiens, UniProt P09874); assay: ex vivo biodistribution with preblockade by nonradioactive 1; assay type: in vivo, mouse
T1 construct: from tissue; host or cells: subcutaneous U87MG-Luc2 human glioblastoma xenograft in female CD1 nude mice
T1 sequence (P09874 whole entry): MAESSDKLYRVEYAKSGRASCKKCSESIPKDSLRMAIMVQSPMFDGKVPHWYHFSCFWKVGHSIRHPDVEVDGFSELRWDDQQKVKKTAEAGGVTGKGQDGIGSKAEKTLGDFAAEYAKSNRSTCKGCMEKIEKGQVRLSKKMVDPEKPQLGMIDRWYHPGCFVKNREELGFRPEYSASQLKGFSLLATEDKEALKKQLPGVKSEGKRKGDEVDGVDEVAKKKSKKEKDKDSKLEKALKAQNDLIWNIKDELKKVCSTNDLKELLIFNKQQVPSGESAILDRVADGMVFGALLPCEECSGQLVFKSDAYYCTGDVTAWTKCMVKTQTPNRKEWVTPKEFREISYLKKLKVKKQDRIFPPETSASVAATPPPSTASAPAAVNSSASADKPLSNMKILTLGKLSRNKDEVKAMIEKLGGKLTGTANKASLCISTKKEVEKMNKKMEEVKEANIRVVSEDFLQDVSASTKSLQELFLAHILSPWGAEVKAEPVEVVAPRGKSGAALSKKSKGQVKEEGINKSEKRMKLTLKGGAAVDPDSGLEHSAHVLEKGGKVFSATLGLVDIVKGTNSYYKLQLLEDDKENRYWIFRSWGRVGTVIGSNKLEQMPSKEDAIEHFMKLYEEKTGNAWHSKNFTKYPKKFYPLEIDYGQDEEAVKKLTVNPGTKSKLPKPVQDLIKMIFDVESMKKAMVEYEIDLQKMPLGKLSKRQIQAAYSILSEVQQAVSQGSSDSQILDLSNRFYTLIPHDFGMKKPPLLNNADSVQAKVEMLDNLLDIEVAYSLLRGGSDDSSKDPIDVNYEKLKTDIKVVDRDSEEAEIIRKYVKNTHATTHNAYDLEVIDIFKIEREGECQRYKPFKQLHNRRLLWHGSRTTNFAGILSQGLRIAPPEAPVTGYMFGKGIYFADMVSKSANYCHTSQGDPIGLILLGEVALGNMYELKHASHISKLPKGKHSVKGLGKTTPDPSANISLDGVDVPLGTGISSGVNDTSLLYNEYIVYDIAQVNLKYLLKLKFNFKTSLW
Protocol: To establish the specificity of [^18F]20 for PARP in bone and tumor tissue, further biodistribution studies were performed on subcutaneous U87MG-Luc2 glioblastoma bearing mice that had PARP binding sites blocked by pretreatment with nonradioactive compound 1 at a dose of 50 mg/kg 20 min prior to [^18F]20 administration. […] This supports the earlier proposed possibility of in vivo [^18F]20 defluorination, leading to free radiofluoride accumulation in the bone.
as §1, §2

[4] = intrinsic clearance in human liver microsomes; assay type: in vitro ADME; details: for microsomal CLint: human, liver microsomes
Excerpt: (§3) However, these were still within the optimal range for a nuclear imaging agent. […] Collectively, the optimal physiochemical properties and low nanomolar PARP cell-free and cellular IC50 values supported further investigation of 20 as a potential radiotracer for PARP. In the body, radiotracers can be exposed to a number of metabolic pathways, including blood plasma hydrolysis and liver functionalization or conjugation reactions that can have a significant effect on the kinetic properties of the tracer and, subsequently its usefulness in nuclear imaging. With this in mind, the in vitro plasma and liver microsome stability of lead candidate 20 were established by incubating the compound in mouse plasma proteins and human liver microsome enzymes, respectively, using previously described methodologies.[19]

[5] = molecular target: human serum albumin (Homo sapiens, UniProt P02768); assay: percentage plasma protein binding by human serum albumin coated HPLC column; assay type: in vitro ADME; details: for fraction unbound: human, read-out: %PPB (converted)
human serum albumin, sequence (P02768 25-609): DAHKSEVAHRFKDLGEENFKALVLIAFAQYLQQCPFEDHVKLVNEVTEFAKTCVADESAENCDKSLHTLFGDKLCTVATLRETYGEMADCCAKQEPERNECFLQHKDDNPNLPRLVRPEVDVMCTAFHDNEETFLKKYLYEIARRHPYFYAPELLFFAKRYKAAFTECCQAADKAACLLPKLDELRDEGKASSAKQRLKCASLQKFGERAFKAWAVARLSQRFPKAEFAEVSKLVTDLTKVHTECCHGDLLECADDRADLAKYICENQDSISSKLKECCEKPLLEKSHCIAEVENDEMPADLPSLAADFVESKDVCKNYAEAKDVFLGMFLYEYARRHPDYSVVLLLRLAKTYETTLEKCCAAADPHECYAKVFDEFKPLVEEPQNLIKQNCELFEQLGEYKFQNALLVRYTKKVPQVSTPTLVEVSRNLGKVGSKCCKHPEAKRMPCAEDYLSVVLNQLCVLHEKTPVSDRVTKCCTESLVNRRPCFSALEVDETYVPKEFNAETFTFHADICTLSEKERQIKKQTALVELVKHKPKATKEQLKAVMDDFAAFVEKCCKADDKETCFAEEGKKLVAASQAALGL

[6] = lipophilicity (log Poct) by C-18 reverse-phase HPLC; assay type: physicochemical; details: C-18 reverse-phase HPLC column
[7] = molecular target: PARP-1 (Homo sapiens, UniProt P09874); assay: cell-free PARP-1 IC50 assay (colorimetric dose-response)
PARP-1, sequence (P09874 whole entry, species assumed): as the sequence (P09874 whole entry) above

[8] = mouse plasma stability; assay type: in vitro ADME
Excerpt: as §3

[9] = experiment 1, read-out: Clint, experiment 1
[10] = experiment 2, read-out: Clint, experiment 2

| SMILES | chromatographic logP [6] | fraction unbound [5] | IC50 [7] | other results |
| --- | --- | --- | --- | --- |
| O=C(c1ccc([18F])cc1)N1CCN(C(=O)c2cc(Cc3n[nH]c(=O)c4ccccc34)ccc2F)CC1 [[^18F]8] | – | – | – | %ID/g of bone [1]: < 2 %ID/g |
| O=C(c1ccc(C[18F])cc1)N1CCN(C(=O)c2cc(Cc3n[nH]c(=O)c4ccccc34)ccc2F)CC1 [[^18F]20] | – | – | – | mean ratio of %ID/g of glioblastoma tumor to muscle, 30 min ([2]; 30 min after intravenous injection, n = 4): 1.9 ± 0.5; mean ratio of %ID/g of glioblastoma tumor to muscle, 120 min ([2]; 120 min after intravenous injection, n = 4): 3.6 ± 0.5; mean percentage of injected dose per gram (%ID/g) of femur tissue ([2]; across 30, 60 and 120 min after intravenous tracer administration): > 8.5%; ratio of %ID/g of tumor to muscle, preblockade using 1 ([3]; 60 min after [18F]20 administration, 50 mg/kg of 1 given 20 min prior, P < 0.05 vs vehicle): 1.07 ± 0.15; ratio of %ID/g of tumor to muscle, vehicle-pretreated mice ([3]; 60 min after [18F]20 administration, vehicle pretreatment): 1.79 ± 0.39; uptake in bone tissue in presence of excess nonradioactive 1 ([3]; 60 min after radioligand administration, 50 mg/kg of 1 pretreatment): not influenced |
| O=C(c1cc(Cc2n[nH]c(=O)c3ccccc23)ccc1F)N1CCN(C(=O)C2CC2)CC1 [compound 1, olaparib, reference compound] | 1.95 | – | – | microsomal CLint [4, 9]: 23 µL/min/mg; microsomal CLint [4, 10]: 34 µL/min/mg; %PPB [5]: 75.9% |
| O=C(c1ccc(F)cc1)N1CCN(C(=O)c2cc(Cc3n[nH]c(=O)c4ccccc34)ccc2F)CC1 [compound 8, 4-[3′-[4″-(4‴-Fluorobenzoyl)piperazine-1″-carbonyl]-4′-fluorobenzyl]-2H-phthalazin-1-one] | 2.51 | 0.141 | – | – |
| O=C(c1ccccc1F)N1CCN(C(=O)c2cc(Cc3n[nH]c(=O)c4ccccc34)ccc2F)CC1 [compound 9, 4-[3′-[4″-(2‴-Fluorobenzoyl)piperazine-1″-carbonyl]-4′-fluorobenzyl]-2H-phthalazin-1-one] | 2.46 | 0.136 | 3.6 nM | – |
| Cc1cc(F)ccc1C(=O)N1CCN(C(=O)c2cc(Cc3n[nH]c(=O)c4ccccc34)ccc2F)CC1 [compound 10, 4-[3′-[4″-(4‴-Fluoro-2‴-methylbenzoyl)piperazine-1″-carbonyl]-4′-fluorobenzyl]-2H-phthalazin-1-one] | 2.66 | 0.139 | 2.9 nM | – |
| O=C(c1ccc(CF)cc1)N1CCN(C(=O)c2cc(Cc3n[nH]c(=O)c4ccccc34)ccc2F)CC1 [compound 20] | 2.51 | 0.107 | 2 nM | stability in mouse plasma ([8]; 20 h incubation in mouse plasma): negligible decomposition; plasma stability, 20 h ([8]; mean percentage of parent compound remaining after 20 h incubation in mouse plasma): 95%; plasma stability, 0 h ([8]; mean percentage of parent compound remaining, mouse plasma, 0 h): 93%; intrinsic clearance fold greater in comparison to 1 ([4]; compared with 1): approximately 3 fold; microsomal CLint [4, 9]: 74 µL/min/mg; microsomal CLint [4, 10]: 90 µL/min/mg; cell-free IC50 fold less than that of 1 ([7]; compared with 1): 6 fold; cell-free IC50 fold less than that of 8 ([7]; compared with 8): 3 fold |

Now from value to molecule, other results behind:

| chromatographic logP [6] | fraction unbound [5] | IC50 [7] | SMILES | other results |
| --- | --- | --- | --- | --- |
| 2.67 | 0.101 | 1.3 nM | O=C(Cc1ccc(F)cc1)N1CCN(C(=O)c2cc(Cc3n[nH]c(=O)c4ccccc34)ccc2F)CC1 [compound 11, 4-[3′-[4″-[(4‴-Fluorophenyl)acetyl]piperazine-1″-carbonyl]-4′-fluorobenzyl]-2H-phthalazin-1-one] | – |
| 2.81 | 0.094 | 4.1 nM | O=C(CCC(=O)N1CCN(C(=O)c2cc(Cc3n[nH]c(=O)c4ccccc34)ccc2F)CC1)c1ccc(F)cc1 [compound 12, 4-[3′-[4′′′′′-[(4‴-Fluorophenyl)butane-1′′′′,4′′′′-dione]-piperazine-1‴-carbonyl]4″-fluorobenzyl]-2H-phthalazin-1-one] | – |
| 3.14 | 0.053 | 11.2 nM | O=C(c1cc(Cc2n[nH]c(=O)c3ccccc23)ccc1F)N1CCN(Cc2ccc(F)cc2)CC1 [compound 13, 4-[3′-[4″-(4‴-Fluorobenzyl)piperazine-1″-carbonyl]-4′-fluorobenzyl]-2H-phthalazin-1-one] | – |
